In patent US20180127681A1, “GLYCOSYLATED AROMA- AND FRAGRANCE PRECURSORS AND FRAGRANCE PRODUCTS THAT CAN BE ACTIVATED” (Technische University Muenchen, priority 2015, published 2018):
Where “and” joins values, the source holds several entries; their conditions need not be identical. Equal values may be shown once.

Assays:
[1] = Baking tests, dough of three kinds of bread with 100 ppm geranyl glucoside (summary); format: physicochemical
Protocol: The proof-of-principle was now shown successfully for the example bread. Dough from three different kinds of bread was treated with the aroma precursor geranyl glucoside. […] This conversion is ascribed to the biggest extent to pyrolytic processes (about 5%) during the ten-minute baking process at 230° C. and partly on the enzyme-catalyzed hydrolytic processes (about […]) during the preparation of yeast-ß-glucosidase.

[2] = Baking test 1, flour dough, release of geraniol by GC-MS; format: physicochemical; conditions: for conversion of GG to geraniol, mean value: triplicate, from 3.2 μmol GG in 17 g bread
Source text: Dough blanks of 10 g flour each were used as base. A negative control (flour, salt and water), three samples (added geranyl glucoside), a recovery (addition of geraniol to the bread prior to freezing according to a postulated conversion of glucoside of about 6% in order to determine the losses during the analytical process) and a control for geraniol in the glucoside solution (addition of an aliquot amount of glucoside only after the baking process to determine the content of geraniol). Several process steps are carried out according to standardized instructions, for each of the six blanks separately.
For a blank/blind test (1) 9.98 g well-mixed flour were weighed into a glass vessel and 0.2 g NaCl were added. The mixture was at first mixed in a dry state for 1 min in a farinograph (=kneader) and kneaded for 8 min after pipetting 6.4 ml dist. water. The dough was taken out quickly and weighed for a first time (E1). A first fermenting period of […] at 31° C. took place in a water vapor saturated proofing cabinet. After taking the dough out of the cabinet a second weighing (E2) took place as well as the homogenization. The ball-shaped blank was put into a round molder (“Rundwirker”) and turned for 10 turns with a superimposed pestle. It was drawn through a pasta/noodle roller, folded two times without inclusion of air and again turned in the round molder for 20 turns. Finally a forming by hand was performed. After the homogenization a second fermentation period of 35 min follows.
For samples (2a-c) additionally 10 μl of a geranyl glucoside (GG) solution (c=98 mg/ml) were quickly pipetted after the addition of water into the kneader.
Baking took place on a tray in the oven for 10 min at 230° C. Before and after putting the samples vapor was put into the closed oven, respectively (spraying and evaporating of 25 ml dist. H2O).
The baked bread was left standing for 60 min at room temperature and subsequently frozen in liquid nitrogen. Storage of the breads took place at −18° C. until the conditioning/preparation. […]

[3] = Baking test 2, simple yeast dough, release of geraniol by GC-MS; format: physicochemical
Protocol: (§1) As samples dough blanks of 10 g flour each were used. A negative control (flour, salt, sugar, yeast and water), three samples (additionally geranyl glucoside) and a recovery (addition of geraniol to the bread before freezing according to a postulated conversion of glucoside of 6% in order to determine losses during the analytical procedure) were used. Several process steps were carried out according to standardized specifications, separate for each of the five blanks.
For a blank/blind test (i) 9.98 g well-mixed flour were weighed into a glass vessel. 0.2 g NaCl and 0.1 g sucrose were added and the mixture was put in the kneader. An addition of 0.7 g (cooled) baking yeast directly to the kneader followed. The mixture was at first kneaded in a dry state for 1 min and kneaded for 8 min after pipetting 6.3 ml dist. H2O. All further steps including the work-up and sample taking ware carried out according to the sample with flour dough (1). In the samples (2a-c) 10 μl GG-solution were pipetted directly after the addition of water to the kneader. The preparation of the recovery (3) was carried out analogous to the blind sample. After cooling for one hour 170 μl geraniol solution were injected herein into the breadcrumb directly before freezing with liquid nitrogen.

[4] = Baking test 3, standard yeast dough, release of geraniol by GC-MS; format: physicochemical
Protocol: as §1, with “fat, yeast, L-ascorbic acid” for “yeast”
For a blank/blind test (i) 9.98 g well-mixed flour were weighed into a glass vessel. 0.2 g NaCl and 0.1 g sucrose and 0.1 g palm fat were added and the mixture was put in the kneader. An addition of 0.7 g (cooled) baking yeast directly to the kneader followed. The mixture was at first kneaded in a dry state for 1 min and kneaded for 8 min after pipetting 6.0 ml dist. H2O and 0.3 ml ascorbic acid solution.
All further steps including the work-up and sample taking ware carried out according to the sample with flour dough (1). In the samples (2a-c) 10 μl GG-solution were pipetted directly after the addition of water and ascorbic acid solution to the kneader. The preparation of the recovery (3) was carried out analogous to the blind sample. After cooling for one hour 170 μl geraniol solution were injected herein into the breadcrumb directly before freezing with liquid nitrogen.

FaGTs1-13 = assay: In vitro glycosyltransferase assay with 14C UDP-glucose, substrates of FaGTs1-13; format: biochemical, Fragaria x ananassa; conditions: FaGTs1-13, FIG. 11B, 1 h at 30° C.
Source text: In the search for efficient biocatalysts which can be particularly used for the production of aroma glycosides the UGT gene family of plant species Vitis vinifera (grape vine) and Fragaria x ananassa (strawberry) was examined. For this at first the gene sequences were searched that are strongly expressed in the fruits of the plant species. These were subsequently isolated, expressed in the host organism Escherichia coli, and the enzymatic activity toward different potential substrates was determined. At least three of the coding nucleic acid sequences (FaGTs1-5, FaGTs1-13 and VvdGT13, see appended sequences) catalyze the formation of aroma glycosides very efficiently.
In FIG. 11 the determination of the enzyme activity of FaGTs1-5 and FaGTs1-13 is shown.
The reaction was started by adding UDP-glucose and stopped after incubation with 1 ml n-butanol. After vortexing for at least 15 s the reaction mixture was centrifuged 2 min at 12 000×g for separation of the phases, and 800 μl of the upper organic phase containing the product were now transferred to 2 ml scintillation cocktail (Ultima-Flo AF, PerkinElmer).

content of geraniol in bread ([1]; 100 ppm added, conversion of 6%)	conversion of glucoside to geraniol ([1]; addition of 100 ppm geranyl glucoside, ten-minute baking at 230° C.)	conversion ascribed to pyrolytic processes ([1]; ten-minute baking process at 230° C.)	content of geraniol in the baked bread [2]	conversion of GG to geraniol, mean value [2]	conversion of GG to geraniol, mean value ([2]; listed as GG)	content of geraniol in the bread [3]	conversion of GG to geraniol, mean value ([3]; samples 2a and 2c only, from 3.2 μmol GG in 17 g bread)	content of geraniol in the bread [4]	conversion of GG to geraniol, mean value ([4]; triplicate, from 3.2 μmol GG in 17 g bread)	conversion relative to furaneol (FaGTs1-13)	Structure (SMILES)
1.7 mg/kg	about 6%	about 5%	1.40 mg/kg	4.8%	4.8% and 4.9%	1.77 mg/kg	6.1%	1.67 mg/kg	5.7%	–	CC(C)=CCC/C(C)=C/CO[C@@H]1O[C@H](CO)[C@@H](O)[C@H](O)[C@H]1O [geranyl glucoside]
–	–	–	–	–	–	–	–	–	–	3 times	CCC1OC(C)=C(O)C1=O (centres unmarked) [homofuraneol]
